Data on 1 compound can be found in patent publication US10674725B1, “Herbicidal composition and method for controlling weeds” (SUMITOMO CHEMICAL COMPANY, LIMITED, priority 2019, dated 2020).

One series relates to corn plant. The settings on record: corn at 2.5-leaf stage, spot-on 2nd leaf; dicamba-biproamine 4,000,000 ng/plant (acid equivalent), PPO inhibitor 2 ng/plant where added; 6 days after treatment.
In a further series the test system is soybean plant. As to conditions: soybean at 2 trifoliate leaf stage, spot-on 2nd trifoliate leaf; dicamba-biproamine 40,000 ng/plant (acid equivalent), PPO inhibitor 20 ng/plant where added; 6 days after treatment; visually estimated.

Procedure for corn plant: An aqueous dilution of trifludimoxazin was prepared by mixing one part of a trifludimoxazin formulation (obtained by mixing a predetermined amount of trifludimoxazin with acetone containing 2% of Tween 20) with 4 parts of water, so as to have a concentration of 0.1 ppm of trifludimoxazin.
6 days after the spot-on treatments, an angle of inclination of the main tiller of the corn plant from the vertical line was measured as a quantitative measure of dicamba corn injury of leaning tiller.

As for `CN(CCCN)CCCN.COc1c(Cl)ccc(Cl)c1C(=O)O` [Dicamba-biproamine, dicamba-biproamine], in the series with corn plant, the “Angle of inclination of the main tiller from the vertical line” value stood at 90 degrees. In the series on soybean plant, the “Leaf area (% of non-treated)” value is given as 40%.
